# Experimental data taken from PMC3008316 (Antiviral research, 2009).
# Where two headings read alike, the source gives them in different places. Marks after values point to notes of the source that are not given here.
# Columns and labels:
# [1] = system: PTV, Adames strain; parameters: species or system Syrian hamsters; details: hamster, in vivo
# [2] = system: PTV, Adames strain; parameters: species or system C57BL/6 mice; details: mouse, in vivo
# [3] = system: PICV, strain An 4763; type: in vivo, Syrian hamsters
# [4] = system: phleboviruses (RVFV, PTV, SFNV); experiment: organism not typed; type: cell-based
# [5] = system: RVFV vaccine strain MP-12
# [6] = system: RVFV vaccine strain MP-12; remark: listed apart in the source
# [7] = system: PTV, Adames strain
# [8] = system: PTV, Adames strain; remark: listed apart in the source
# [9] = system: Sandfly fever virus, Naples strain (SFNV)
# [10] = system: Sandfly fever virus, Naples strain (SFNV); remark: listed apart in the source
# [11] = system: Tacaribe virus (TCRV), strain TRVL 11573
# [12] = system: Tacaribe virus (TCRV), strain TRVL 11573; remark: listed apart in the source
# [13] = system: Junin virus (JUNV) vaccine strain Candid 1
# [14] = system: Junin virus (JUNV) vaccine strain Candid 1; remark: listed apart in the source
# [15] = system: PICV, strain An 4763
# [16] = system: PICV, strain An 4763; remark: listed apart in the source
# [17] = system: Vero cells; details: monkey
# [18] = in vitro; details: monkey, CC50 ± SD
# [19] = in vitro; details: monkey, CC50 ± SD; remark: listed apart in the source
# [20] = system: RVFV vaccine strain MP-12; experiment: microbe, parasite or virus in culture; details: Rift Valley fever virus, Vero 76, read-out: EC50 ± SD (CPER)
# [21] = system: RVFV vaccine strain MP-12; experiment: microbe, parasite or virus in culture; details: Rift Valley fever virus, Vero 76, read-out: EC90 ± SD (VYR)
# [22] = system: PTV, Adames strain; experiment: microbe, parasite or virus in culture; details: Punta Toro virus, Vero 76, read-out: EC50 ± SD (CPER)
# [23] = system: PTV, Adames strain; experiment: microbe, parasite or virus in culture; details: Punta Toro virus, Vero 76, read-out: EC90 ± SD (VYR)
# [24] = system: Sandfly fever virus, Naples strain (SFNV); experiment: microbe, parasite or virus in culture; details: sandfly fever Sicilian virus, Vero 76, read-out: EC50 ± SD (CPER)
# [25] = system: Sandfly fever virus, Naples strain (SFNV); experiment: microbe, parasite or virus in culture; details: sandfly fever Sicilian virus, Vero 76, read-out: EC90 ± SD (VYR)
# [26] = system: Tacaribe virus (TCRV), strain TRVL 11573; experiment: microbe, parasite or virus in culture; details: Mammarenavirus tacaribeense, Vero 76, read-out: EC50 ± SD (CPER)
# [27] = system: Tacaribe virus (TCRV), strain TRVL 11573; experiment: microbe, parasite or virus in culture; details: Mammarenavirus tacaribeense, Vero 76, read-out: EC90 ± SD (VYR)
# [28] = system: Junin virus (JUNV) vaccine strain Candid 1; experiment: microbe, parasite or virus in culture; details: Mammarenavirus juninense, Vero, read-out: EC50 ± SD (CPER)
# [29] = system: Junin virus (JUNV) vaccine strain Candid 1; experiment: microbe, parasite or virus in culture; details: Mammarenavirus juninense, Vero, read-out: EC90 ± SD (VYR)
# [30] = system: PICV, strain An 4763; experiment: microbe, parasite or virus in culture; details: Pichinde virus, Vero, read-out: EC50 ± SD (CPER)
# [31] = system: PICV, strain An 4763; experiment: microbe, parasite or virus in culture; details: Pichinde virus, Vero, read-out: EC90 ± SD (VYR)
# [32] = hamster, in vivo, po, 25 mg/kg/day
# [33] = hamster, in vivo, po, 50 mg/kg/day
# [34] = hamster, in vivo, po, 100 mg/kg/day
structure (smiles),measurement,setting,value
"NC(=O)c1nc(F)cnc1O [T-705, 6-fluoro-3-hydroxy-2-pyrazinecarboxamide]",ED50 (survival),[1],112 µmol/kg/day
same,"Mean virus titer ± SD, liver",[1],< 3.9 ± 1.5 (40)
same,Survival compared to placebo,[1],significant protection
same,ALT ± SD,"[1]; po, 25 mg/kg/day",820 ± 1148 international units per liter
same,"Mean virus titer ± SD, liver","[1]; po, 25 mg/kg/day",< 5.9 ± 1.8 (80)
same,"Mean virus titer ± SD, serum","[1]; po, 25 mg/kg/day",< 5.4 ± 3.4 (60)
same,"Percentage of animals with detectable virus, liver","[1]; po, 25 mg/kg/day",< 5.9 ± 1.8 (80) %
same,"Percentage of animals with detectable virus, serum","[1]; po, 25 mg/kg/day",< 5.4 ± 3.4 (60) %
same,ALT ± SD,"[1]; po, 50 mg/kg/day",52 ± 79 international units per liter
same,"Mean virus titer ± SD, liver","[1]; po, 50 mg/kg/day",< 3.6 ± 1.7 (40)
same,"Percentage of animals with detectable virus, liver","[1]; po, 50 mg/kg/day",< 3.6 ± 1.7 (40) %
same,ALT ± SD,"[1]; po, 100 mg/kg/day",38 ± 19 international units per liter
same,"Mean virus titer ± SD, serum","[1]; po, 100 mg/kg/day",< 3.1 ± 1.9 (40)
same,"Percentage of animals with detectable virus, liver","[1]; po, 100 mg/kg/day",< 3.9 ± 1.5 (40) %
same,"Percentage of animals with detectable virus, serum","[1]; po, 100 mg/kg/day",< 3.1 ± 1.9 (40) %
same,ED50 (survival),[2],159 µmol/kg/day
same,Potency relative to T-1106 based on ALT molar dose response,"[3]; hamster, in vivo",2.6 fold
same,Potency relative to T-1106 based on ED50,"[3]; hamster, in vivo",6.1 times
same,Survival compared to placebo,"[3]; hamster, in vivo",significantly protected
same,ED50 (survival),"[3]; hamster, in vivo, po",72 µmol/kg/day
same,ALT ± SD,[3]; [32],859 ± 782 international units per liter
same,"Mean virus titer ± SD, liver",[3]; [32],7.6 ± 0.8 (100)
same,"Mean virus titer ± SD, serum",[3]; [32],6.6 ± 1.0 (100)
same,"Percentage of animals with detectable virus, liver",[3]; [32],7.6 ± 0.8 (100) %
same,"Percentage of animals with detectable virus, serum",[3]; [32],6.6 ± 1.0 (100) %
same,"Mean virus titer ± SD, liver",[3]; [33],5.8 ± 1.1 (100)
same,"Mean virus titer ± SD, serum",[3]; [33],< 3.8 ± 1.6 (80)
same,"Percentage of animals with detectable virus, liver",[3]; [33],5.8 ± 1.1 (100) %
same,"Percentage of animals with detectable virus, serum",[3]; [33],< 3.8 ± 1.6 (80) %
same,"Mean virus titer ± SD, liver",[3]; [34],< 3.3 ± 0.5 (60)
same,"Mean virus titer ± SD, serum",[3]; [34],< 1.8 (0) ^**
same,"Percentage of animals with detectable virus, liver",[3]; [34],< 3.3 ± 0.5 (60) %
same,"Percentage of animals with detectable virus, serum",[3]; [34],< 1.8 (0) ^** %
same,Survival outcome,[3]; n=10,complete protection
same,Animals protected (survival),"[3]; n=10, 25 mg/kg/day",70%
same,Animals protected (survival),"[3]; n=10, 50 mg/kg/day",80%
same,"Inhibitory concentrations, range",[4],3 to 55 µM
same,EC50,"[4]; read-out: EC50 values, range (CPE reduction assay)",27 to 55 µM
same,EC90,"[4]; read-out: EC90 values, range (VYR)",3 to 19 µM
same,SI (CC50/EC50),[5],>236
same,SI (CC50/EC90),[6],>530
same,SI (CC50/EC50),[7],>68
same,SI (CC50/EC90),[8],>197
same,SI (CC50/EC50),[9],195
same,SI (CC50/EC90),[10],1952
same,SI (CC50/EC50),[11],>187
same,SI (CC50/EC90),[12],>405
same,SI (CC50/EC50),[13],>285
same,SI (CC50/EC90),[14],>387
same,SI (CC50/EC50),[15],194
same,SI (CC50/EC90),[16],202
same,CC50,[17],4860 ± 409 µM
same,CC50,[18],> 6360 µM
same,CC50,[19],> 5410 µM
same,EC50,[20],27 ± 5 µM
same,EC90,[21],12 ± 4 µM
same,EC50,[22],55 ± 35 µM
same,EC90,[23],19 ± 11 µM
same,EC50,[24],30 ± 15 µM
same,EC90,[25],3 ± 1 µM
same,EC50,[26],26 ± 13 µM
same,EC90,[27],12 ± 4 µM
same,EC50,[28],19 ± 5 µM
same,EC90,[29],14 ± 3 µM
same,EC50,[30],25 ± 6 µM
same,EC90,[31],24 ± 5 µM
